Reference: ChEMBL document CHEMBL3885861, “Open TG-GATES”

Species on record: Rattus norvegicus
Assay: Open TG-GATES - Regimen: Daily Repeat
Type: toxicity, organism-based, Sprague-Dawley
Parameters: regimen Daily Repeat, gender Male, age 6 weeks
Conditions: in vivo, po, 300 mg/kg, route gavage, dose level Middle; for APTT / Bas / Eos / Fbg / Hb / Ht / Lym / MCH / MCHC / MCV / Mono / Neu / PT / Plat / RBC / Ret / WBC: tissue Blood; for KIDNEY_L / KIDNEY_R / KIDNEY_TOTAL: tissue Kidney; for LIVER: tissue Liver; for A/G / ALP / ALT / AST / BUN / CRE / Ca / Cl / DBIL / GLC / IP / K / LDH / Na / PL / RALB / TBIL / TC / TG / TP / gamma-GTP: tissue Plasma

For `CN(C)[C@@H]1C(O)=C(C(N)=O)C(=O)[C@@]2(O)C(O)=C3C(=O)c4c(O)cccc4[C@@](C)(O)[C@H]3C[C@@H]12` [TETRACYCLINE], the TERMINAL_BW (72 h, time 3 day) was 189.9 g, the APTT (72 h, time 3 day) was 16.3 s and the Bas (72 h, time 3 day) was 0%. It also gave an Eos (72 h, time 3 day) of 0.6%, a Fbg (72 h, time 3 day) of 239.2 mg/dL and a Hb (72 h, time 3 day) of 13.6 g/dL. For the same compound, the Ht (72 h, time 3 day) was 40.7%, the Lym (72 h, time 3 day) was 87.4% and the MCH (72 h, time 3 day) was 21.9 pg. For the same compound, the MCHC (72 h, time 3 day) was 33.4%, the MCV (72 h, time 3 day) was 65.7 fL and the Mono (72 h, time 3 day) was 5.6%. The Neu (72 h, time 3 day) was 6%, the PT (72 h, time 3 day) was 12.3 s and the Plat (72 h, time 3 day) was 99.5 x10_4/uL. For the same compound, the RBC (72 h, time 3 day) was 620.2 x10_4/ul, the Ret (72 h, time 3 day) was 5.8% and the WBC (72 h, time 3 day) was 89.4 x10_2/uL. It also gave a KIDNEY_L (72 h, time 3 day) of 0.9 g, a KIDNEY_R (72 h, time 3 day) of 0.9 g and a KIDNEY_TOTAL (72 h, time 3 day) of 1.8 g. The LIVER (72 h, time 3 day) was 8.8 g, the A/G (72 h, time 3 day) was 1.9 and the ALP (72 h, time 3 day) was 1035.4 IU/L. For the same compound, the ALT (72 h, time 3 day) was 35.6 IU/L, the AST (72 h, time 3 day) was 66.8 IU/L and the BUN (72 h, time 3 day) was 16.2 mg/dL. For the same compound, the CRE (72 h, time 3 day) was 0.6 mg/dL, the Ca (72 h, time 3 day) was 10.9 mg/dL and the Cl (72 h, time 3 day) was 107.2 meq/L. For the same compound, the DBIL (72 h, time 3 day) was 0.01 mg/dL, the GLC (72 h, time 3 day) was 180.6 mg/dL and the IP (72 h, time 3 day) was 9.8 mg/dL. It also gave a K (72 h, time 3 day) of 4.8 meq/L, an LDH (72 h, time 3 day) of 122.6 IU/L and a Na (72 h, time 3 day) of 141 meq/L. It also gave a PL (72 h, time 3 day) of 147.2 mg/dL, an RALB (72 h, time 3 day) of 3.8 g/dL and a TBIL (72 h, time 3 day) of 0.3 mg/dL. It also gave a TC (72 h, time 3 day) of 93.6 mg/dL, a TG (72 h, time 3 day) of 42.6 mg/dL and a TP (72 h, time 3 day) of 5.8 g/dL. The gamma-GTP (72 h, time 3 day) was 1.6 IU/L, the TERMINAL_BW ([…], time 7 day) was 227.9 g and the TERMINAL_BW ([…], time 14 day) was 275.6 g. For the same compound, the TERMINAL_BW ([…], time 28 day) was 341 g, the APTT ([…], time 7 day) was 17.9 s and the Bas ([…], time 7 day) was 0%. It also gave an Eos ([…], time 7 day) of 1%, a Fbg ([…], time 7 day) of 238.5 mg/dL and a Hb ([…], time 7 day) of 13.9 g/dL. It also gave a Ht ([…], time 7 day) of 41.5%, a Lym ([…], time 7 day) of 85% and an MCH ([…], time 7 day) of 21 pg. It also gave an MCHC ([…], time 7 day) of 33.4%, an MCV ([…], time 7 day) of 62.9 fL and a Mono ([…], time 7 day) of 7%. The Neu ([…], time 7 day) was 7.2%, the PT ([…], time 7 day) was 12.1 s and the Plat ([…], time 7 day) was 102 x10_4/uL. For the same compound, the RBC ([…], time 7 day) was 660.2 x10_4/ul, the Ret ([…], time 7 day) was 7.2% and the WBC ([…], time 7 day) was 135.8 x10_2/uL. The APTT ([…], time 14 day) was 16.7 s, the Bas ([…], time 14 day) was 0% and the Eos ([…], time 14 day) was 0.6%. For the same compound, the Fbg ([…], time 14 day) was 224 mg/dL, the Hb ([…], time 14 day) was 14 g/dL and the Ht ([…], time 14 day) was 42.2%. It also gave a Lym ([…], time 14 day) of 88.8%, an MCH ([…], time 14 day) of 20.3 pg and an MCHC ([…], time 14 day) of 33.3%. For the same compound, the MCV ([…], time 14 day) was 60.8 fL, the Mono ([…], time 14 day) was 4.8% and the Neu ([…], time 14 day) was 5.8%. It also gave a PT ([…], time 14 day) of 11.9 s, a Plat ([…], time 14 day) of 101.9 x10_4/uL and an RBC ([…], time 14 day) of 694 x10_4/ul. It also gave a Ret ([…], time 14 day) of 5.3%, a WBC ([…], time 14 day) of 135.4 x10_2/uL and an APTT ([…], time 28 day) of 16.5 s. The Bas ([…], time 28 day) was 0%, the Eos ([…], time 28 day) was 1% and the Fbg ([…], time 28 day) was 222.6 mg/dL. For the same compound, the Hb ([…], time 28 day) was 14.6 g/dL, the Ht ([…], time 28 day) was 43.4% and the Lym ([…], time 28 day) was 89.4%. The MCH ([…], time 28 day) was 19 pg, the MCHC ([…], time 28 day) was 33.6% and the MCV ([…], time 28 day) was 56.6 fL. For the same compound, the Mono ([…], time 28 day) was 3%, the Neu ([…], time 28 day) was 7% and the PT ([…], time 28 day) was 11.8 s. For the same compound, the Plat ([…], time 28 day) was 94.9 x10_4/uL, the RBC ([…], time 28 day) was 766.8 x10_4/ul and the Ret ([…], time 28 day) was 2.7%. For the same compound, the WBC ([…], time 28 day) was 147 x10_2/uL, the KIDNEY_L ([…], time 7 day) was 1 g and the KIDNEY_R ([…], time 7 day) was 1 g. The KIDNEY_TOTAL ([…], time 7 day) was 2 g, the KIDNEY_L ([…], time 14 day) was 1.1 g and the KIDNEY_R ([…], time 14 day) was 1.1 g. For the same compound, the KIDNEY_TOTAL ([…], time 14 day) was 2.2 g, the KIDNEY_L ([…], time 28 day) was 1.3 g and the KIDNEY_R ([…], time 28 day) was 1.2 g. It also gave a KIDNEY_TOTAL ([…], time 28 day) of 2.5 g, an LIVER ([…], time 7 day) of 10.8 g and an LIVER ([…], time 14 day) of 11.8 g. For the same compound, the LIVER ([…], time 28 day) was 13.2 g, the A/G ([…], time 7 day) was 2 and the ALP ([…], time 7 day) was 1076.4 IU/L. For the same compound, the ALT ([…], time 7 day) was 38.2 IU/L, the AST ([…], time 7 day) was 69 IU/L and the BUN ([…], time 7 day) was 20.2 mg/dL. The CRE ([…], time 7 day) was 0.6 mg/dL, the Ca ([…], time 7 day) was 11.2 mg/dL and the Cl ([…], time 7 day) was 106.6 meq/L. The DBIL ([…], time 7 day) was 0.004 mg/dL, the GLC ([…], time 7 day) was 176 mg/dL and the IP ([…], time 7 day) was 9.6 mg/dL. For the same compound, the K ([…], time 7 day) was 5.5 meq/L, the LDH ([…], time 7 day) was 142 IU/L and the Na ([…], time 7 day) was 140.4 meq/L. For the same compound, the PL ([…], time 7 day) was 157.6 mg/dL, the RALB ([…], time 7 day) was 3.9 g/dL and the TBIL ([…], time 7 day) was 0.3 mg/dL. It also gave a TC ([…], time 7 day) of 82.6 mg/dL, a TG ([…], time 7 day) of 87.6 mg/dL and a TP ([…], time 7 day) of 5.9 g/dL. It also gave a gamma-GTP ([…], time 7 day) of 1 IU/L, an A/G ([…], time 14 day) of 2 and an ALP ([…], time 14 day) of 1009.2 IU/L. For the same compound, the ALT ([…], time 14 day) was 36.8 IU/L, the AST ([…], time 14 day) was 61.6 IU/L and the BUN ([…], time 14 day) was 20.8 mg/dL. It also gave a CRE ([…], time 14 day) of 0.5 mg/dL, a Ca ([…], time 14 day) of 11.1 mg/dL and a Cl ([…], time 14 day) of 103.8 meq/L. For the same compound, the DBIL ([…], time 14 day) was 0.006 mg/dL, the GLC ([…], time 14 day) was 178.2 mg/dL and the IP ([…], time 14 day) was 8.6 mg/dL. The K ([…], time 14 day) was 4.8 meq/L, the LDH ([…], time 14 day) was 88.6 IU/L and the Na ([…], time 14 day) was 142.4 meq/L. For the same compound, the PL ([…], time 14 day) was 157 mg/dL, the RALB ([…], time 14 day) was 3.9 g/dL and the TBIL ([…], time 14 day) was 0.3 mg/dL. The TC ([…], time 14 day) was 72.4 mg/dL, the TG ([…], time 14 day) was 111.4 mg/dL and the TP ([…], time 14 day) was 6 g/dL. The gamma-GTP ([…], time 14 day) was 1.2 IU/L, the A/G ([…], time 28 day) was 1.8 and the ALP ([…], time 28 day) was 813.4 IU/L. For the same compound, the ALT ([…], time 28 day) was 29 IU/L, the AST ([…], time 28 day) was 62.4 IU/L and the BUN ([…], time 28 day) was 19.4 mg/dL. The CRE ([…], time 28 day) was 0.6 mg/dL, the Ca ([…], time 28 day) was 10.9 mg/dL and the Cl ([…], time 28 day) was 107 meq/L. For the same compound, the DBIL ([…], time 28 day) was 0.026 mg/dL, the GLC ([…], time 28 day) was 173.2 mg/dL and the IP ([…], time 28 day) was 7.4 mg/dL. It also gave a K ([…], time 28 day) of 4.2 meq/L, an LDH ([…], time 28 day) of 73.8 IU/L and a Na ([…], time 28 day) of 141 meq/L. It also gave a PL ([…], time 28 day) of 146 mg/dL, an RALB ([…], time 28 day) of 3.8 g/dL and a TBIL ([…], time 28 day) of 0.3 mg/dL. For the same compound, the TC ([…], time 28 day) was 75.2 mg/dL, the TG ([…], time 28 day) was 127 mg/dL and the TP ([…], time 28 day) was 6 g/dL. It also gave a gamma-GTP ([…], time 28 day) of 1 IU/L.
